Measurements: patent US10864215B2, “Use of phosphoinositide 3-kinase inhibitors for treatment of vascular malformations” (MEMORIAL SLOAN-KETTERING CANCER CENTER, priority 2015, dated 2020)
“Also recorded” adds a separate entry of the source.

Experiments:
[1] = system: PIK3CA^CAG-CreER VM-derived allografts; test: PIK3CA^CAG-CreER VM-derived allografts in nude mice, oral treatment; format: in vivo; conditions: for VM volume / apoptosis (cleaved caspase 3 in CD31-positive cells) / proliferation (BrdU incorporation in CD31-positive cells): allografts in nude mice, daily p.o., one week, BYL719 50 mg×kg^−1, everolimus 10 mg×kg^−1, propranolol 40 mg×kg^−1
Protocol: For allograft studies, vascular lesions isolated from PIK3CA^CAG-CreER mice were rinsed with ice cold PBS, minced, resuspended with cold 1:1 DMEM/Matrigel, and injected subcutaneously in six-week-old female athymic Foxn1^nu nude mice. […] The following formula was applied:
[formula] After one week of treatment, VM were measured and harvested for further analysis. VM volume was calculated using the following formula: […]
(§1) IHC and IF stainings were performed using Discovery XT processor (Ventana Medical Systems) at the Molecular Cytology Core (MSKCC). Tissue sections were deparaffinized with EZPrep buffer (Ventana Medical Systems), antigen retrieval was performed with CC1 buffer (Ventana Medical Systems). Sections were blocked for 30 minutes with Background Buster solution (Innovex) or 10% normal rabbit serum (for LYVE-1 antibody) followed by avidin/biotin blocking for 8 minutes. Sections were stained with the following antibodies: CD31: (Dianova, DIA-310, 1 μg×mL^−1) for 5 hours, followed by 60 minutes incubation with biotinylated goat anti-rat IgG (Vector labs, PK-4004) at 1:200 dilution. The detection was performed with Streptavidin-HRP D (Ventana Medical Systems), followed by incubation with Alexa Fluor 488 (Invitrogen, T20922); BrdU: sections were pretreated with Protease K (5 μg×mL^−1) and incubated with anti-BrdU (Roche, 1170376, 1 μg×mL^−1) for 5 hours, followed by 60 minutes incubation with biotinylated horse anti-mouse IgG (Vector Labs, MKB-22258). The detection was performed with Streptavidin-HRP D (Ventana Medical Systems), followed by incubation with Alexa Fluor 594 (Invitrogen, T20935). When two markers were used, stainings were performed consecutively according to the procedure described above. After staining, slides were counterstained with DAPI (Sigma, D9542, 5 μg×mL^−1) for 10 min and coverslipped with Mowiol. Antibodies were used as follows: GLUT-1: Sections were incubated with anti-GLUT-1 antibody (Chemicon, AB1340, 0.5 μg×mL^−1) for 4 hours, followed by 60 minutes incubation with biotinylated goat anti-rabbit IgG (Vector labs, PK6101) at 1:200 dilution; LYVE-1: Sections were incubated with anti-LYVE-1 antibody (R&D Systems, AF2125, 1 μg×mL^−1) for 3 hours, followed by 60 minutes incubation with biotinylated rabbit anti-goat IgG (Vector, BA-5000) at 1:200 dilution.; and WT-1: Sections were incubated with anti-WT-1 antibody (Abcam, Ab89901, 1:50 dilution) for 1 hour, followed by 60 minutes incubation with biotinylated rabbit anti-goat IgG (Vector, BA-5000) at 1:200 dilution. For GLUT-1, LYVE-1, and WT-1 IHC, detection was performed with DAB detection kit (Ventana Medical Systems) according to manufacturer instructions, followed by counterstaining with hematoxylin (Ventana Medical Systems) and coverslipped with Permount (Fisher Scientific).

[2] = system: phosphorylated AKT (T308 and S473); test: Western blot of HUVEC cells expressing TEK L914F; format: cell-based, human; conditions: HUVEC stably expressing TEK L914F, treated 4 hours
Protocol: FIGS. 27A-27B. Treatment of VM with PI3K inhibitors. (A) Western blot of HUVEC cells transduced with TEK L914F mutation and probed with the indicated antibodies. Cells were treated for 4 hours with the indicated doses of BYL719. (B) Representative images of the allograft VM treated with the topical formulation of BYL719. Free and soluble refer to the two different preparations of the topical formula. Arrows indicate the area affected by the VM allograft.
Proteins were extracted using RIPA buffer and Western blot was performed usim standard methods. Antibodies for Western blot were: pAKT (S473) (Cell Signaling; 4060), pAKT (T308) (Cell Signaling; 2965), AKT (Cell Signaling; 9272), pS6K (T389) (Cell Signaling; 9205), S6K (Cell Signaling; 2708), pS6 (S240/4) (Cell Signaling; 5364), pS6 (S235/6) (Cell Signaling; 4858), S6 (Cell Signaling; 2217), actin (Cell Signaling; 4970). Tube formation assay was performed using Matrigel-coated 48 multiwells as a substrate. 10^5 EC were seeded in EBM-2 media without FBS and analyzed after 6 hours for tube formation.

[3] = system: PIK3CA^CAG-CreER VM-derived allografts; test: VM allografts treated topically with BYL719 1% (w/w) cream; format: in vivo, mice; conditions: topical, daily, BYL719 1% (w/w) in two cream formulations (free and soluble BYL719), 3 weeks
Protocol: For the formulation of topical preparations, the cream base Versatile™ (Fargon) was used, which allows the incorporation of active principles and has the ability to vanish rapidly into the skin of the mice. Two different formulations using BYL719 at 1% (w/w) were prepared as follows. Free BYL719: This formulation was generated by mixing BYL719 in powder with the base cream and homogenized using an Ultra-Turrax to achieve a similar distribution of the active principle. Soluble BYL719: For this formula, BYL719 powder was dissolved in a small volume of DMSO (400 mg×mL^−1). This concentrated solution was then incorporated into the base cream with gentle agitation, achieving a homogeneous distribution of the active principle. The topical formulations were applied into the mice lesions at daily-basis and VM growth was assessed as described above.

ANG2 = ANG2 mRNA (RT-qPCR) and protein (ELISA) in PIK3CA^H1047R ECs; format: cell-based, human; conditions: serum-starved, treated overnight, BYL719 1 μM, MK2206 1 μM, Everolimus 50 nM; for ANG2 protein expression: ELISA; for ANG2 mRNA expression: RT-qPCR
PIK3CA^Tie2-Cre embryos = test: Treatment of pregnant PIK3CA^Tie2-Cre mice, embryo vascular phenotype; format: in vivo
Protocol: as §1, with “For the treatment of pregnant PIK3CA^Tie2-Cre mice, BYL719 was administered orally three times at E7.5, E8.5, and E9.5. Two hours after the last treatment, embryos were harvested and characterized. IHC and” for “IHC and”

[4] = VVM in nude mice, BYL719 50 mg×kg-1 daily p.o.
[5] = pregnant mice, BYL719 50 mg×kg^−1 p.o., 48, 24 and 2 hours before harvest

## Cc1nc(NC(=O)N2CCC[C@H]2C(N)=O)sc1-c1ccnc(C(C)(C)C(F)(F)F)c1 [BYL719]
[1]; [4]
  phospho-AKT (S473) levels: decrease
  phospho-S6RP (S240/4) levels: decrease
[1]
  VM volume: decrease in VM volume
  apoptosis (cleaved caspase 3 in CD31-positive cells): increased apoptosis
  proliferation (BrdU incorporation in CD31-positive cells): decrease in proliferation; also recorded: reduced proliferation
[2]
  amount of phosphorylated AKT (T308 and S473): decreased
[3]
  regression of skin lesions (VM volume): rapid and sustained regression of skin lesions
ANG2
  ANG2 protein expression: able to rescue
  ANG2 mRNA expression: able to rescue
PIK3CA^Tie2-Cre embryos; pregnant mice treated, E9.5 embryos
  meningeal, cardinal vein and dorsal aorta blood vessel morphology (histology, CD31 coronal sections): reestablished meningeal, cardinal vein, and dorsal aorta blood vessels morphology
PIK3CA^Tie2-Cre embryos; pregnant mice treated, versus untreated control embryos
  Phospho-AKT staining in PIK3CA^Tie2-Cre and PIK3CA^WT embryos: strong reduction
PIK3CA^Tie2-Cre embryos; [5]
  cephalic and intersomitic small blood vessel formation (CD31 whole-mount staining): restored cephalic and intersomitic small blood vessel formation
  overall body size of PIK3CA^Tie2-Cre E9.5 embryos: comparable to PIK3CA^WT littermates

## Cl.Cl.NC1(c2ccc(-c3nc4ccn5c(=O)[nH]nc5c4cc3-c3ccccc3)cc2)CCC1 [MK2206, 8-[4-(1-aminocyclobutyl)phenyl]-9-phenyl-1,2,4-triazolo[3,4-f][1,6]naphthyridin-3(2H)-one, dihydrochloride]
ANG2
  ANG2 protein expression: able to rescue
  ANG2 mRNA expression: able to rescue

## CO[C@H]1C[C@@H]2CC[C@@H](C)[C@@](O)(O2)C(=O)C(=O)N2CCCC[C@H]2C(=O)O[C@H]([C@H](C)C[C@@H]2CC[C@@H](OCCO)[C@H](OC)C2)CC(=O)[C@H](C)/C=C(\C)[C@@H](O)[C@@H](OC)C(=O)[C@H](C)C[C@H](C)/C=C/C=C/C=C/1C [everolimus]
[1]
  VM volume: partially decreased VM size; also recorded: greatest growth inhibition
  apoptosis (cleaved caspase 3 in CD31-positive cells): did not increase apoptosis
  proliferation (BrdU incorporation in CD31-positive cells): partially decreased
